Data from patent publication US6664271B1, “Immunopotentiator agents” (Eli Lilly and Company, priority 1999, dated 2003).

Tested on: chicken leukocytes
Assay: cells
Assay type: cell-based
Details: for minimal effective concentration: Gallus gallus, Leukocyte, read-out: MSC (Minimum Stimulatory Concentration)
Method: Various compounds of Formula I were evaluated for in vitro T-lymphocyte blastogenic activity with chicken leukocytes according to the steps described in the following procedure:
(a) Exsanguination step. The leukocytes were obtained from 3-6 week old Hubbard/Peterson broiler chickens. Initially, the chickens were rendered unconscious in a CO2 chamber. The chickens were then exsanguinated via cardiac puncture. In the exsanguination procedure, a syringe was connected to a needle, and the needle was inserted into the area at the base of the neck under the “V” formed by the breast and sternum. After the needle was properly inserted, continuous vacuum was applied to a syringe (connected to the needle) by pulling back on the plunger. It is important to promptly carry out this withdrawal action, because there is only a 10-15 seconds time period after the blood has starting flowing into the syringe before the blood coagulates, and becomes unusable. As soon as the syringe is full (or prior to complete filling if too much time has elapsed such that the blood begins to coagulate), the whole uncoagulated blood is transferred to a tube having the anticoagulant EDTA therein. The tube is then rotated to mix the whole blood and the EDTA. Alternatively, the whole blood can be withdrawn directly into a vacuum container already having EDTA therein, rather than into a syringe.
(b) Leukocyte isolation step. Numerous methods for isolating leukocytes from (uncoagulated) whole blood are known in the art. In a preferred method, the sterile whole blood was combined with methylcellulose (1.5:1). Any blood containing clots was discarded. The mixture was centrifuged at 30×g for ten minutes (300 rpm on Beckman GS-6R centrifuge). The top layer (leukocytes in supernatant) was decanted into a sterile 50 ml conical tube, while taking care to prevent contamination of the sample by red blood cells. The decanted layer was then centrifuged at 200×g for ten minutes (1500 rpm on the Beckman GS-6R centrifuge). The supernatant liquid was discarded, and the resulting cell “pellet” was retained.
The cells were then washed in a solution containing 10 ml PBS (phosphate buffered saline) and Gentamycin (gentamicin sulfate) at a concentration of 50 μg/ml. This solution was centrifuged at 100×g (1000 rpm on the Beckman centrifuge) for five minutes, and the supernatant liquid was discarded. The washing step (including the centrifuging at 100×g) was repeated to ensure complete removal of the methylcellulose. The use of media such as DMEM ([…]) was avoided in the washing steps, since such media may cause agglutination of the white blood cells. Finally, the cells were then suspended in an appropriate media, such as RPMI 1640 tissue cell culture medium, supplemented with phenol red, NaHCO3, and L-Glutamide. Supplemented RPMI 1640 is available from Sigma-Aldrich Chemical Co.
(c) Cell counting and cell viability step. The cells were counted and checked for viability using the Trypan Blue method of exclusion. 0.1 ml of the cell suspension was placed in a 4-5 ml small culture tube along with 0.7 ml HBSS (Hank's Buffered Saline Solution), available from Sigma-Aldrich, and 0.2 ml of a 0.4% solution of aqueous Trypan Blue stain, available from GIBCO BRL, of Grand Island, N.Y. The components were mixed thoroughly but gently, and allowed to sit for 5 minutes (no longer than 15 minutes). The components should not be exposed to the stain for extended periods of time, because such extended exposure may permit viable cells, as well as non-viable cells, to take up dye.
A cover slip was placed on a Bright Line hemacytometer, available from Howser Scientific, and 10 μl of the mixture from the tube was transferred to each chamber. Non-viable cells appear blue under a microscope. The viable cells in one of the 16-square corners of the hemacytometer were then counted. […]

[1] = chicken leukocytes, read at 72 hours
[2] = Hubbard/Peterson broiler, chicken, 72 h

| Structure (SMILES) | MSC (Minimum Stimulatory Concentration) [1] | minimal effective concentration [1] | MTC (Maximum Tolerable Concentration prior to causing cytotoxicity) [2] | MTC (Maximum Tolerable Concentration prior to causing cytotoxicity) [1] |
| --- | --- | --- | --- | --- |
| CCOC(=O)[C@H]1CCCN(C(=O)C(C)c2ccccc2)C1 (mixture of isomers) [Example 58, (S)±Ethyl 1-(2-Phenylpropionyl)-3-piperidinecarboxylate] | 1000 ng/mL |  |  |  |
| CCOC(=O)C1CCCN(C(=O)c2ccccc2)C1 (stereo not shown) [Example 1, Ethyl 1-Benzoyl-3-piperidinecarboxylate] |  | 0.1 µg/mL | 10 µg/mL |  |
| CCOC(=O)C1CCCN(C(=O)c2ccsc2)C1 (stereo not shown) [Example 2, Ethyl 1-(3-thiophenecarbonyl)-3-piperidinecarboxylate] |  | 1 µg/mL | 1 µg/mL |  |
| CCOC(=O)C1CN(C(=O)c2ccccc2)CCC1=O (stereo not shown) [Example 3, Ethyl 1-Benzoyl-4-oxo-3-piperidinecarboxylate] |  | 0.01 µg/mL | 1 µg/mL |  |
| CCOC(=O)C1CCCN(C(=O)OCc2ccccc2)C1 (stereo not shown) [Example 4, Ethyl 1-Benzyloxycarbonyl-3-piperidinecarboxylate] |  | 1 µg/mL | 10 µg/mL |  |
| CCOC(=O)C1CCCN(C(=O)Cc2ccccc2)C1 (stereo not shown) [Example 6, Ethyl 1-Phenylacetyl-3-piperidinecarboxylate] | 100 ng/mL |  |  | 1 µg/mL |
| CCOC(=O)C1CCCN(C(=O)c2ccc(F)cc2)C1 (stereo not shown) [Example 7, Ethyl 1-(4-Fluorobenzoyl)-3-piperidinecarboxylate] |  | 0.01 µg/mL | 10 µg/mL |  |
| CCOC(=O)C1CCCN(C(=O)c2cccs2)C1 (stereo not shown) [Example 8, Ethyl (2-Thiophenecarbonyl)-3-piperidinecarboxylate] | 100 ng/mL |  |  |  |
| CCOC(=O)C1CCCN(C(=O)Cc2cccs2)C1 (stereo not shown) [Example 9, Ethyl 1-(2-thiopheneacetyl)-3-piperidinecarboxylate] |  | 0.01 µg/mL | 1 µg/mL |  |
| CCOC(=O)C1CN(C(=O)OCc2ccccc2)CCC1=O (stereo not shown) [Example 10, Ethyl 1-Benzyloxycarbonyl-4-oxo-3-piperidinecarboxylate] |  | 0.01 µg/mL | 0.1 µg/mL |  |
| CCOC(=O)C1CN(C(=O)c2ccc(F)cc2)CCC1=O (stereo not shown) [Example 12, Ethyl 1-(4-Fluorobenzoyl)-4-oxo-3-piperidinecarboxylate] |  | 0.01 µg/mL | 0.1 µg/mL |  |
| CCCCOC(=O)C1CCCN(C(=O)c2ccccc2)C1 (stereo not shown) [Example 13, n-Butyl 1-Benzoyl-3-piperidinecarboxylate] |  | 0.01 µg/mL | 1 µg/mL |  |
| CCNC(=O)C1CCCN(C(=O)c2ccccc2)C1 (stereo not shown) [Example 17, N-Ethyl 1-Benzoyl-3-piperidinecarboxamide] |  | 1 µg/mL | 10 µg/mL |  |
| CCCCCCCCNC(=O)C1CCCN(C(=O)c2ccccc2)C1 (stereo not shown) [Example 18, N-(n-Octyl) 1-Benzoyl-3-piperidinecarboxamide] |  | 0.01 µg/mL | 0.1 µg/mL |  |
| CCNC(=O)C1CCCN(C(=O)Cc2cccs2)C1 (stereo not shown) [Example 20, N-Ethyl 1-(2-Thiopheneacetyl)-3-piperidinecarboxamide] |  | 0.1 µg/mL | 1 µg/mL |  |
| CCOC(=O)C1CCCN(C(=O)CCc2cccs2)C1 (stereo not shown) [Example 23, Ethyl 1-(3-(2-Thienyl)propionyl)3-piperidinecarboxylate] |  | 0.1 µg/mL | 1 µg/mL |  |
| CN(C)CCNC(=O)C1CCCN(C(=O)Cc2cccs2)C1 (stereo not shown) [Example 25, 2-Dimethylaminoethyl 1-(2-thiopheneacetyl)-3-piperidinecarboxamide] |  | 0.1 µg/mL | 1 µg/mL |  |
| CCOC(=O)CC1CCCN(C(=O)Cc2cccs2)C1 (stereo not shown) [Example 27, Ethyl 1-(2-Thiopheneacetyl)-3-piperidinylacetate] |  | 1 µg/mL | 1 µg/mL |  |
| CCOC(=O)CC1CCCCN1C(=O)Cc1cccs1 (stereo not shown) [Example 28, Ethyl 1-(2-Thiopheneacetyl)-2-piperidinylacetate] | 100 ng/mL |  |  |  |
| CCOC(=O)C1CCC(C)N(C(=O)Cc2cccs2)C1 (stereo not shown) [Example 33, Ethyl 1-(2-Thiopheneacetyl)-6-methyl-3-piperidinecarboxylate] |  | 0.1 µg/mL | 10 µg/mL |  |
| CCOC(=O)C1CCC[N+](C)(Cc2ccccc2)C1.[I-] (stereo not shown) [Example 35, Ethyl 1-Benzyl-3-piperidinecarboxylate 1-Methiodide] | 10000 ng/mL |  |  |  |
| CCOC(=O)C1CCCN(C(=O)c2ccc(-c3ccccc3)cc2)C1 (stereo not shown) [Example 36, Ethyl 1-(4-Phenylbenzoyl)-3-piperidinecarboxylate] |  | 0.1 µg/mL | 10 µg/mL |  |
| O=C(O)[C@H]1CCCN(C(=O)Cc2cccs2)C1 [Example 37, (S)-1-(2-Thiopheneacetyl)-3-piperidine Carboxylic Acid] |  | 10 µg/mL | 1000 µg/mL |  |
| COC(=O)C1CN(C(=O)OCc2ccccc2)CCC1=O (stereo not shown) [Example 38, Methyl 1-Benzyloxycarbonyl-4-oxo-3-piperidinecarboxylate] |  | 1 µg/mL | 1 µg/mL |  |
| CCOC(=O)C1(C)CCCN(C(=O)c2ccccc2)C1 (stereo not shown) [Example 39, Ethyl 1-Benzoyl-3-methyl-3-piperidinecarboxylate] |  | 1 µg/mL | 1 µg/mL |  |
| CNC(=O)N1C2CCC1C(C(=O)OC)C(=O)C2 (stereo not shown) [Example 40, 8-[(Methylamino)carbonyl]-3-oxo-8-azabicyclo[3.2.1]octane-2-carboxylic Acid, Methyl Ester] |  | 0.01 µg/mL |  | 10 µg/mL |
| O=C(Cc1cccs1)N1CCCC(O)C1 (stereo not shown) [Example 41, 1-(2-Thiopheneacetyl)-3-hydroxypiperidine] |  | 10 µg/mL | 100 µg/mL |  |
| N.O=C(O)[C@H]1CCCN(C(=O)Cc2cccs2)C1 [Example 42, (S)-1-(2-Thiopheneacetyl)-3-piperidinecarboxylic Acid Ammonium Salt] |  | 1 µg/mL |  | 10 µg/mL |
